Measurements published in patent publication US10266497B2 (ABIDE THERAPEUTICS, INC., priority 2017, dated 2019).

How the values were obtained:
FAAH [1] = target: T1, FAAH (Homo sapiens, UniProt O00519); experiment: In vitro competitive activity-based protein profiling, FAAH, human; details: for inhibition at 1 µM: read-out: FAAH % inh. 1 μM (human)
T1 sequence (O00519 1-579): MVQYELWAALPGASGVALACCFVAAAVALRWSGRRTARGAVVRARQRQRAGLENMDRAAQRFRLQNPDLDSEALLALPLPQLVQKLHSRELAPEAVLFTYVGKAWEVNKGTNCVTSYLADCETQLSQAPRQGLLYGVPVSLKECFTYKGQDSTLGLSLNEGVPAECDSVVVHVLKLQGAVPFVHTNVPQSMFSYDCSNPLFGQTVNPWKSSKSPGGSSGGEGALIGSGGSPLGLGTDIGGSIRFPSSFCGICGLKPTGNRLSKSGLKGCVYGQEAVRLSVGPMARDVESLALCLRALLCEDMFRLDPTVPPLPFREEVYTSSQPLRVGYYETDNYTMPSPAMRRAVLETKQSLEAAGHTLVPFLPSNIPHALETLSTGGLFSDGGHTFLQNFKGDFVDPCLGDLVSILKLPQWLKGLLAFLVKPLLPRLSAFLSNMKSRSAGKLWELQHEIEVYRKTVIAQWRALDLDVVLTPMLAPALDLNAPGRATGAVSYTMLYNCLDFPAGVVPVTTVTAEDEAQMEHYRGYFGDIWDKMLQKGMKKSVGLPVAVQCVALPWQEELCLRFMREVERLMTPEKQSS
Description: (§1) Biological Evaluation In Vitro Competitive Activity-Based Protein Profiling.
(§2) Proteomes (mouse brain membrane fraction for mouse assays; human prefrontal cortex membrane fractions for human assays) (50 mL, 1.0 mg/mL total protein concentration) were preincubated with varying concentrations of inhibitors at 37° C. After 30 min, FP-Rh (1.0 mL, 50 mM in DMSO) was added and the mixture was incubated for another 30 min at 37° C. Reactions were quenched with SDS loading buffer (15 μL—4λ) and run on SDS-PAGE.

FAAH [2] = target: T2, FAAH (Mus musculus, UniProt O08914); experiment: In vitro competitive activity-based protein profiling, FAAH, mouse; details: read-out: FAAH % inh. 1 μM (mouse)
T2 sequence (O08914 1-579): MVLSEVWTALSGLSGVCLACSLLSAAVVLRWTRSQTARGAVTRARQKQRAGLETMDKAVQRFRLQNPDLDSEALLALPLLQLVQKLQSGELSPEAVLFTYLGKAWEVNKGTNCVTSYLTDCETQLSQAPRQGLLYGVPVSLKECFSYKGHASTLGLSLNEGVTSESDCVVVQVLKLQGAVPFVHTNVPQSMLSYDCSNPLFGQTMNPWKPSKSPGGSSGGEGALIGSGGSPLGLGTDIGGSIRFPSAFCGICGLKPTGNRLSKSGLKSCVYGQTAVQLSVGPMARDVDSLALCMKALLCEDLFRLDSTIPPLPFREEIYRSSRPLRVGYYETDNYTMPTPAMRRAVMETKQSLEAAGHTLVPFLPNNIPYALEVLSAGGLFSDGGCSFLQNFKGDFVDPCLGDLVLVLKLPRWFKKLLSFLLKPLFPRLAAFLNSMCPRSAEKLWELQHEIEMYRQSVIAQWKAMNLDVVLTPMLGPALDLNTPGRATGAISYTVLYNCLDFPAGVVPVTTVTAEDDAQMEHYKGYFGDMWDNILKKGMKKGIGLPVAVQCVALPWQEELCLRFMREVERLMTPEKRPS
Description: as §1, §2

MAGL [3] = target: T3, MAGL (Mus musculus, UniProt O35678); experiment: In vitro competitive activity-based protein profiling, MAGL, mouse; details: read-out: MAGL % inh. 1 μM (mouse)
T3 sequence (O35678 1-303): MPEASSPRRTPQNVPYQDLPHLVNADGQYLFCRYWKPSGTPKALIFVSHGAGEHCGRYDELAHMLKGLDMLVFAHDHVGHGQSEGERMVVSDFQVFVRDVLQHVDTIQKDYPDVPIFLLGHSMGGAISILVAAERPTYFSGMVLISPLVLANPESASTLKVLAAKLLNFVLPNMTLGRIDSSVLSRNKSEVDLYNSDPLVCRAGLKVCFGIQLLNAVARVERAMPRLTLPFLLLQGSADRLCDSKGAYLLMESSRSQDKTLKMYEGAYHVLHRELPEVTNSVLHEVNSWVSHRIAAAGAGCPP

MAGL [4] = target: T4, MAGL (Homo sapiens, UniProt Q99685); experiment: In vitro competitive activity-based protein profiling, MAGL, human; details: for inhibition at 1 µM: read-out: MAGL % inh. 1 μM (human)
T4 sequence (Q99685 1-303): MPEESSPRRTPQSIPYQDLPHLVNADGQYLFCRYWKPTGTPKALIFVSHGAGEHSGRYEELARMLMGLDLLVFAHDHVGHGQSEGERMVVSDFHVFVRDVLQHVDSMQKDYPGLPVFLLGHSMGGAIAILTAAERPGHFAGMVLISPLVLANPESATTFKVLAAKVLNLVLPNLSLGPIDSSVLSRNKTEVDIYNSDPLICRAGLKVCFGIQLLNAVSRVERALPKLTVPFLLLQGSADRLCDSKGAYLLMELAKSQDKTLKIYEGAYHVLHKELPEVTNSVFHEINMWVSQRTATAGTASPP

SMILES | inhibition at 10 µM (FAAH [1]; read-out: FAAH % inh. (human) at 10 uM) | inhibition at 1 µM (FAAH [2]) | inhibition at 1 µM (MAGL [3]) | inhibition at 10 µM (MAGL [4]; read-out: MAGL % inh. (human) at 10 uM) | inhibition at 1 µM (FAAH [1]) | inhibition at 1 µM (MAGL [4]) | IC50 (FAAH [1])
C#Cc1ccc(CN2CCN(C(=O)n3ccc(C(=O)O)n3)CC2)cc1 [Example 50, 1-(4-(4-ethynylbenzyl)piper-azine-1-carbonyl)-1H-pyrazole-3-carboxylic acid] | > 75% | 0 to 25% | 0 to 25% | > 75% | – | – | –
O=C(O)c1ccn(C(=O)N2C[C@H]3C[C@H](OCc4cc(F)cc(Cl)c4)C[C@H]3C2)n1 [Example 53, 1-(trans-5-((3-chloro-5-fluorobenzyl)oxy)octahydrocyclopenta [c]pyrrole-2-carbonyl)-1H-pyrazole-3-carboxylic acid] | – | > 75% | > 75% | – | > 75% | > 75% | 100 to 1000 nM
CN(Cc1cc(Cl)ccc1C(F)(F)F)CC1CCN(C(=O)n2cc(Cl)c(C(=O)O)n2)CC1 [Example 54, 4-chloro-1-(4-(((5-chloro-2-(trifluoromethyl)benzyl)(methyl)amino)methyl)piper-idine-1-carbonyl)-1H-pyrazole-3-carboxylic acid] | – | > 75% | > 75% | – | > 75% | > 75% | 100 to 1000 nM
O=C(O)c1ccn(C(=O)N2CCC3(CCCN3C(=O)c3cc4ccc(C(F)(F)F)cc4s3)CC2)n1 [Example 56, 1-(1-(6-(trifluoromethyl)benzo[b]thiophene-2-carbonyl)-1,8-diazaspiro[4.5]decane-8-carbonyl)-1H-pyrazole-3-carboxylic acid] | – | 50 to 75% | > 75% | – | 0 to 25% | > 75% | –
O=C(O)c1ccn(C(=O)N2CCC3(CCN(C(=O)c4cc5ccc(C(F)(F)F)cc5s4)C3)CC2)n1 [Example 58, 1-(2-(6-(trifluoromethyl)benzo[b]thiophene-2-carbonyl)-2,8-diazaspiro[4.5]decane-8-carbonyl)-1H-pyrazole-3-carboxylic acid] | – | 50 to 75% | > 75% | – | 0 to 25% | > 75% | –
Cc1ccc(CN2CCN(C(=O)n3ccc(C(=O)O)n3)CC2)c(-c2nnco2)c1 [Example 66, 1-(4-(4-methyl-2-(1,3,4-oxadiazol-2-yl)benzyl)piperazine-1-carbonyl)-1H-pyrazole-3-carboxylic acid] | – | 0 to 25% | > 75% | – | 0 to 25% | > 75% | –
O=C(O)c1ccn(C(=O)N2CCN(Cc3ccc(Cl)cc3-c3nnco3)CC2)n1 [Example 67, 1-(4-(4-chloro-2-(1,3,4-oxadiazol-2-yl)benzyl)piperazine-1-carbonyl)-1H-pyrazole-3-carboxylic acid] | – | 0 to 25% | > 75% | – | 0 to 25% | > 75% | –
O=C(O)c1ccn(C(=O)N2CCN(Cc3ccc(OC(F)(F)F)cc3-c3nnco3)CC2)n1 [Example 68, 1-(4-(2-(1,3,4-oxadiazol-2-yl)-4-(trifluoromethoxy)benzyl)piperazine-1-carbonyl)-1H-pyrazole-3-carboxylic acid] | – | 0 to 25% | > 75% | – | 0 to 25% | > 75% | –
O=C(O)c1ccn(C(=O)N2CCN(Cc3ccc(C(F)(F)F)cc3-c3nnco3)CC2)n1 [Example 69, 1-(4-(2-(1,3,4-oxadiazol-2-yl)-4-(trifluoromethyl)benzyl)piperazine-1-carbonyl)-1H-pyrazole-3-carboxylic acid] | – | 0 to 25% | > 75% | – | 0 to 25% | > 75% | –
O=C(O)c1ccn(C(=O)N2CCC3(CCN(Cc4cc(F)cc(Cl)c4)C3)CC2)n1 [Example 70, 1-(2-(3-chloro-5-fluorobenzyl)-2,8-diazaspiro[4.5]decane-8-carbonyl)-1H-pyrazole-3-carboxylic acid] | – | 0 to 25% | 0 to 25% | – | 50 to 75% | 25 to 50% | –
Cc1c(CN2CCC3(CCN(C(=O)n4ccc(C(=O)O)n4)CC3)C2)cccc1C(F)(F)F [Example 71, 1-(2-(2-methyl-3-(trifluoromethyl)benzyl)-2,8-diazaspiro[4.5]decane-8-carbonyl)-1H-pyrazole-3-carboxylic acid] | – | 0 to 25% | > 75% | – | 0 to 25% | > 75% | –

More lines, now with the values ahead:

inhibition at 10 µM (FAAH [1]; read-out: FAAH % inh. (human) at 10 uM) | inhibition at 1 µM (FAAH [2]) | inhibition at 1 µM (MAGL [3]) | inhibition at 10 µM (MAGL [4]; read-out: MAGL % inh. (human) at 10 uM) | inhibition at 1 µM (FAAH [1]) | inhibition at 1 µM (MAGL [4]) | IC50 (FAAH [1]) | SMILES
– | 0 to 25% | > 75% | – | 0 to 25% | > 75% | – | O=C(O)c1ccn(C(=O)N2CCN(Cc3cccc(Oc4ccccn4)c3)CC2)n1 [Example 52]
– | 0 to 25% | > 75% | – | 0 to 25% | > 75% | – | O=C(O)c1ccn(C(=O)N2CCN(Cc3cccc(Oc4ccncc4)c3)CC2)n1 [Example 59, 1-(4-(3-(pyridin-4-yloxy)benzyl)piper-azine-1-carbonyl)-1H-pyrazole-3-carboxylic acid]
– | 0 to 25% | 0 to 25% | – | 0 to 25% | 25 to 50% | – | O=C(O)c1ccn(C(=O)N2CCN(Cc3cccc(Oc4cnccn4)c3)CC2)n1 [Example 60]
– | > 75% | > 75% | – | > 75% | > 75% | 100 to 1000 nM | O=C(O)c1ccn(C(=O)N2CCN(Cc3cccc(Oc4ccc(C(F)(F)F)cn4)c3)CC2)n1 [Example 61, 1-(4-(3-((5-(trifluoromethyl)pyridin-2-yl)oxy)benzyl)piper-azine-1-carbonyl)-1H-pyrazole-3-carboxylic acid]
– | 0 to 25% | 0 to 25% | – | 0 to 25% | 50 to 75% | – | O=C(O)c1ccn(C(=O)N2CCN(Cc3cccc(Oc4ncccn4)c3)CC2)n1 [Example 62, 1-(4-(3-(pyrimidin-2-yloxy)benzyl)piper-azine-1-carbonyl)-1H-pyrazole-3-carboxylic acid]
– | 0 to 25% | 0 to 25% | – | 50 to 75% | 25 to 50% | – | O=C(O)c1ccn(C(=O)N2CCN(Cc3cccc(Oc4ccncn4)c3)CC2)n1 [Example 63, 1-(4-(3-(pyrimidin-4-yloxy)benzyl)piper-azine-1-carbonyl)-1H-pyrazole-3-carboxylic acid]
– | 0 to 25% | > 75% | – | 0 to 25% | > 75% | – | O=C(O)c1ccn(C(=O)N2CCN(Cc3cccc(-c4ncccn4)c3)CC2)n1 [Example 64, 1-(4-(3-(pyrimidin-2-yl)benzyl)piperazine-1-carbonyl)-1H-pyrazole-3-carboxylic acid]
– | 0 to 25% | 25 to 50% | – | 0 to 25% | 50 to 75% | – | O=C(O)c1ccn(C(=O)N2CCN(Cc3cccc(Oc4cncnc4)c3)CC2)n1 [Example 65, 1-(4-(3-(pyrimidin-5-yloxy)benzyl)piper-azine-1-carbonyl)-1H-pyrazole-3-carboxylic acid]
